Experimental findings from US20130296311A1, “INHIBITORS OF HCV NS5A” (PRESIDIO PHARMACEUTICALS, INC., priority 2010, published 2013) are described below.

For one assay, the system named is HCV 1b_Huh-Luc/Neo-ET cell line persistently expressing a bicistronic genotype 1b replicon in Huh 7 cells. Description: HCV replicon assay (luciferase readout, 72 h). The assay is classed as cell-based, HCV genotype 1b. The following applies: Hepatitis C virus, Huh-7, 72 h, read-out: Inhibition of HCV genotype 1b. The method in brief:
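Huh 7 cells carrying a bicistronic genotype 1b luciferase/neo replicon received compound in triplicate the day after plating. After 72 h, replicon levels were read as Bright-Glo luciferase activity, expressed as % of control; EC50 was fitted with a four-parameter logistic and determined several times.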
(A replicon is a self-replicating genome or part of one, used to study replication in cells.)
Take `CN1CCN(C(=O)N[C@@H](C(=O)N2CCC[C@H]2c2ncc(C#Cc3ccc(C#Cc4cnc([C@@H]5CCCN5C(=O)[C@H](NC(=O)N5CCN(C)CC5)c5ccccc5)[nH]4)cc3)[nH]2)c2ccccc2)CC1` [Compound 310]: the EC50 lay within 1 to 9.9 nM.

Consider `COC(=O)N[C@@H](C(=O)N1CCC[C@H]1c1ncc(-c2ccc(C#Cc3ccc(-c4cnc([C@@H]5CCCN5C(=O)[C@@H](c5ccccc5)N5CCCC5)[nH]4)cc3)cc2)[nH]1)c1ccccc1` [Compound 178], for which the EC50 is < 1 nM.

Regarding `O=C(N[C@@H](C(=O)N1CCC[C@H]1c1ncc(-c2ccc(C#Cc3ccc(-c4cnc([C@@H]5CCCN5C(=O)[C@H](NC(=O)N5CC[C@@H](O)C5)c5ccccc5)[nH]4)cc3)cc2)[nH]1)c1ccccc1)N1CC[C@@H](O)C1` [Compound 252], the EC50 is < 1 nM.

As for `COC(=O)N[C@@H](C(=O)N1CCC[C@H]1c1ncc(-c2ccc(C#Cc3ccc(-c4cnc([C@@H]5CCCN5C(=O)[C@H](NC(=O)[C@H]5CCCN5C)c5ccccc5)[nH]4)cc3)cc2)[nH]1)c1ccccc1` [Compound 204], the EC50 was < 1 nM.

Take `COC(=O)N[C@H](C(=O)N1CCC[C@H]1c1ncc(-c2ccc(C#Cc3ccc4nc([C@@H]5CCCN5C(=O)[C@H](C(C)C)N(C)C)[nH]c4c3)cc2)[nH]1)C(C)C` [Compound 1021]: the EC50 was < 1 nM.

On to `COC(=O)N[C@H](C(=O)N1CCC[C@H]1c1ncc(-c2ccc(C#Cc3ccc(-c4cnc([C@@H]5CCCN5C(=O)[C@@H](c5ccccc5)N5CCN(C)CC5)[nH]4)cc3)cc2)[nH]1)C(C)C` [Compound 957], for which the EC50 is < 1 nM.

For `COC(=O)N[C@@H](Cc1cnc[nH]1)C(=O)N1CCC[C@H]1c1ncc(-c2ccc(C#Cc3ccc4nc([C@@H]5CCCN5C(=O)[C@H](Cc5cnc[nH]5)NC(=O)OC)[nH]c4c3)cc2)[nH]1` [Compound 1048], the EC50 lay within 1 to 9.9 nM.

As to `COC(=O)N[C@@H](C(=O)N1CCC[C@H]1c1ncc(-c2ccc(C#Cc3ccc(-c4cnc([C@@H]5CCCN5C(=O)[C@H](C(C)C)N5CCOC5=O)[nH]4)cc3)cc2)[nH]1)c1ccccc1` [Compound 1005], the EC50 was < 1 nM.

As for `COC(=O)N[C@@H](C(=O)N1CCC[C@H]1c1ncc(-c2ccc(C#Cc3ccc(-c4cnc([C@@H]5CCCN5C(=O)[C@H](OC)c5ccccc5)[nH]4)cc3)cc2)[nH]1)c1ccccc1` [Compound 179], the EC50 is < 1 nM.

Regarding `CN(C)C(=O)N[C@@H](C(=O)N1CCC[C@H]1c1ncc(-c2ccc(C#Cc3ccc(-c4cnc([C@@H]5CCCN5C(=O)[C@H](NC(=O)N(C)C)c5ccccc5)[nH]4)cc3)cc2)[nH]1)c1ccccc1` [Compound 161], the EC50 was < 1 nM.

For `COC(=O)N[C@@H](C(=O)N1CCC[C@H]1c1ncc(C#Cc2ccc(-c3ccc(-c4cnc([C@@H]5CCCN5C(=O)[C@H](NC(=O)OC)c5ccccc5)[nH]4)cc3)cc2)[nH]1)c1ccccc1` [Compound 750], the EC50 is < 1 nM.

On to `CN(C)[C@@H](C(=O)N1CCC[C@H]1c1ncc(-c2ccc(C#Cc3ccc(-c4cnc([C@@H]5CCCN5C(=O)[C@H](NC(=O)C5CC5)c5ccccc5)[nH]4)cc3)cc2)[nH]1)c1ccccc1` [Compound 215], for which the EC50 is < 1 nM.

For `COC(=O)N[C@H](C(=O)N1CCC[C@H]1c1ncc(-c2ccc(C#Cc3ccc(-c4cnc([C@@H]5CCCN5C(=O)[C@@H](NC(=O)N5CCN(CCO)CC5)c5ccccc5)[nH]4)cc3)cc2)[nH]1)C(C)C` [Compound 990], the EC50 fell in the range of 1 to 9.9 nM.

For the molecule `CN1CCC(C(=O)N[C@@H](C(=O)N2CCC[C@H]2c2cc(-c3ccc(C#Cc4ccc(-c5cnc([C@@H]6CCCN6C(=O)[C@H](NC(=O)C6CCN(C)CC6)c6ccccc6)[nH]5)cc4)cc3)n[nH]2)c2ccccc2)CC1` [Compound 223-1], the EC50 was < 1 nM.

In the case of `COC(=O)N[C@@H](CCC(N)=O)C(=O)N1CCC[C@H]1c1ncc(-c2ccc(C#Cc3ccc4nc([C@@H]5CCCN5C(=O)[C@H](CCC(N)=O)NC(=O)OC)[nH]c4c3)cc2)[nH]1` [Compound 1051], the EC50 is 1 to 9.9 nM.

Take `COC(=O)N[C@@H](CC(=O)O)C(=O)N1CCC[C@H]1c1ncc(-c2ccc(C#Cc3ccc4nc([C@@H]5CCCN5C(=O)[C@H](CC(=O)O)NC(=O)OC)[nH]c4c3)cc2)[nH]1` [Compound 1061]: the EC50 lay within 10 to 999 nM.

`COC(=O)N[C@@H](C(=O)N(C)[C@@H](C)c1ncc(-c2ccc(C#Cc3ccc(-c4cnc([C@@H]5CCCN5C(=O)[C@H](NC(=O)OC)c5ccccc5)[nH]4)cc3)cc2)[nH]1)c1ccccc1` [Compound 274]: the EC50 is < 1 nM.

For `CC(C)[C@@H](NC(=O)N1CCC(O)CC1)C(=O)N1CCC[C@H]1c1ncc(-c2ccc(C#Cc3ccc(-c4cnc([C@@H]5CCCN5C(=O)[C@H](NC(=O)N5CCC(O)CC5)C(C)C)[nH]4)cc3)cc2)[nH]1` [Compound 959], the EC50 was < 1 nM.

Turning to `COC(=O)N[C@@H](CC(C)C)C(=O)N1CCC[C@H]1c1ncc(-c2ccc(C#Cc3ccc4nc([C@@H]5CCCN5C(=O)[C@H](CC(C)C)NC(=O)OC)[nH]c4c3)cc2)[nH]1` [Compound 1067], the EC50 was < 1 nM.

Take `COC(=O)N[C@H](C(=O)N1CCC[C@H]1c1nc2ccc(-c3ccc(C#Cc4cnc([C@@H]5CCCN5C(=O)[C@H](NC(=O)OC)c5ccccc5)[nH]4)cc3)cc2[nH]1)C(C)C` [Compound 1085]: the EC50 is < 1 nM.

`CCN(CC)[C@@H](C(=O)N1CCC[C@H]1c1ncc(-c2ccc(C#Cc3ccc(-c4cnc([C@@H]5CCCN5C(=O)[C@@H](NC(=O)OC)C(C)C)[nH]4)cc3)cc2)[nH]1)c1ccccc1` [Compound 985]: the EC50 is < 1 nM.

For the molecule `COC(=O)N[C@H](C(=O)N1CCC[C@H]1c1nc(-c2cnc3cc(C#Cc4ccc(-c5cnc([C@@H]6CCCN6C(=O)[C@@H](NC(=O)OC)c6ccccc6)[nH]5)cc4)ccc3c2)c[nH]1)c1ccccc1` [Compound 1089], the EC50 lay within 10 to 999 nM.

On to `CC(C)[C@H](NC(=O)N1CC[C@H](O)C1)C(=O)N1CCC[C@H]1c1ncc(-c2ccc(C#Cc3ccc(-c4cnc([C@@H]5CCCN5C(=O)[C@@H](NC(=O)N5CC[C@H](O)C5)C(C)C)[nH]4)cc3)cc2)[nH]1` [Compound 988], for which the EC50 was 10 to 999 nM.

Still in this assay, the particulars now being: Hepatitis C virus, Huh-7, read-out: Inhibition of HCV genotype 1b.
Turning to `COC(=O)N[C@H](C(=O)N1CCC[C@H]1c1ncc(-c2ccc(C#Cc3ccc4nc([C@@H]5CCCN5C(=O)[C@@H](NC(=O)OC)C5CCCC5)[nH]c4n3)cc2)[nH]1)C1CCCC1` [Compound 1250], the EC50 was < 1 nM.

For the molecule `CC[C@H](C)[C@H](NC(=O)OC)C(=O)N1CCC[C@H]1c1ncc(-c2ccc3cc(C#Cc4[nH]c([C@@H]5CCCN5C(=O)[C@@H](NC(=O)OC)[C@@H](C)CC)nc4C(F)(F)F)ccc3c2)[nH]1` [Compound 1253], the EC50 is < 1 nM.

For the molecule `CC[C@H](C)[C@H](NC(=O)OC)C(=O)N1CCC[C@H]1c1ncc(-c2ccc(C#Cc3ccc4nc([C@@H]5CCCN5C(=O)[C@@H](NC(=O)OC)[C@@H](C)CC)[nH]c4n3)cc2)[nH]1` [Compound 1251], the EC50 is < 1 nM.

Take `COC(=O)N[C@H](C(=O)N1CCC[C@H]1c1nc2c([nH]1)-c1ccc(C#Cc3ccc4nc([C@@H]5CCCN5C(=O)[C@@H](NC(=O)OC)C(C)C)[nH]c4c3)cc1CCC2)C(C)C` [Compound 1279]: the EC50 is < 1 nM.

With `COC(=O)N[C@H](C(=O)N1CCN(C(=O)OC)C[C@H]1c1ncc(-c2ccc(C#Cc3ccc4nc([C@@H]5CCCN5C(=O)[C@H](NC(=O)OC5CCOCC5)c5ccccc5)[nH]c4c3)cc2)[nH]1)C(C)C` [Compound 1231], the EC50 is < 1 nM.
